Experimental data as given in ChEMBL document CHEMBL5154793, “Discovery of Thieno[2,3-d]pyrimidine-based KRAS G12D inhibitors as potential anticancer agents via combinatorial virtual screening” (Eur J Med Chem, 2022).

Tests used:
Type in all cases: functional, cell-based
PANC-1 = experiment: Antiproliferative activity against human PANC1 cells harboring KRAS G12D mutant assessed as inhibition of cell viability after 24 hrs by MTT assay; conditions: PANC-1, 24 h
SW1990 = experiment: Antiproliferative activity against human SW1990 cells harboring KRAS G12D mutant assessed as inhibition of cell viability after 24 hrs by MTT assay; conditions: SW1990, 24 h
HCT-116 = experiment: Antiproliferative activity against human HCT-116 cells harboring KRAS G13D mutant assessed as inhibition of cell viability after 24 hrs by MTT assay; conditions: HCT-116, 24 h
HeLa = experiment: Antiproliferative activity against human HeLa cells harboring wild type KRAS assessed as inhibition of cell viability after 24 hrs by MTT assay
CT26 = experiment: Antiproliferative activity against mouse CT26 cells harboring KRAS G12D mutant assessed as inhibition of cell viability after 24 hrs by MTT assay; conditions: CT26, 24 h
NCI-H358 = experiment: Antiproliferative activity against human NCI-H358 cells harboring KRAS G12C mutant assessed as inhibition of cell viability after 24 hrs by MTT assay; conditions: NCI-H358, 24 h

SMILES	IC50 (PANC-1)	IC50 (SW1990)	IC50 (HCT-116)	IC50 (HeLa)	IC50 (CT26)	IC50 (NCI-H358)
c1ccc(-c2cccc3ccccc23)c(-c2cc3c(N4CC5CCC(C4)N5)ncnc3s2)c1	2.8 µM	7.7 µM	7.9 µM	11.5 µM	12.4 µM	–
COc1ccc(F)c(-c2cc3c(N4CC5CCC(C4)N5)ncnc3s2)c1	7.9 µM	10.2 µM	–	–	9.8 µM	–
Fc1ccc(F)c(-c2cc3c(N4CC5CCC(C4)N5)ncnc3s2)c1	6.1 µM	17.8 µM	27.3 µM	> 40 µM	11.8 µM	21.5 µM
O=[N+]([O-])c1ccc(-c2cc3c(N4CC5CCC(C4)N5)ncnc3s2)cc1	16.8 µM	8.7 µM	–	–	4.4 µM	–
c1ccc(-c2cc3c(N4CC5CC(C4)N5)ncnc3s2)cc1	30.5 µM	40.1 µM	–	–	40.5 µM	–
COc1ccc(F)cc1-c1cc2c(N3CC4CCC(C3)N4)ncnc2s1	> 20 µM	16.8 µM	–	–	22.6 µM	–
Cc1ccc(-c2cc3c(N4CC5CCC(C4)N5)ncnc3s2)c(C)c1	10.1 µM	5.9 µM	–	–	13.4 µM	–
FC(F)(F)c1ccc(Cl)c(-c2cc3c(N4CC5CCC(C4)N5)ncnc3s2)c1	9.4 µM	4.2 µM	–	–	9.7 µM	–
COc1cccc(F)c1-c1cc2c(N3CC4CCC(C3)N4)ncnc2s1	15.2 µM	18.8 µM	–	–	17 µM	–
COc1cc(-c2cc3c(N4CC5CCC(C4)N5)ncnc3s2)cc(C(F)(F)F)c1	7.7 µM	5.8 µM	8 µM	10.5 µM	7.2 µM	4.5 µM
Fc1ccc(-c2cc3c(N4CC5CCC(C4)N5)ncnc3s2)c(F)c1	13 µM	13.4 µM	–	–	15.6 µM	–
FC(F)(F)c1ccc(-c2cc3c(N4CC5CCC(C4)N5)ncnc3s2)cc1	10.3 µM	6.2 µM	–	–	6.9 µM	–
Clc1ccc(Cl)c(-c2cc3c(N4CC5CCC(C4)N5)ncnc3s2)c1	4.3 µM	7.7 µM	15.9 µM	11.3 µM	6.5 µM	10.1 µM
COc1cc(-c2cc3c(N4CC5CCC(C4)N5)ncnc3s2)cc(OC)c1OC	> 20 µM	> 20 µM	–	–	25 µM	–
FC(F)(F)c1cc(Cl)cc(-c2cc3c(N4CC5CCC(C4)N5)ncnc3s2)c1	5.3 µM	7.7 µM	8.2 µM	8.8 µM	6.5 µM	9.1 µM
Clc1ccc(-c2cc3c(N4CC5CCC(C4)N5)ncnc3s2)cc1Cl	7.5 µM	12.1 µM	9.9 µM	12.5 µM	7.1 µM	9.4 µM
Fc1cc(-c2cc3c(N4CC5CCC(C4)N5)ncnc3s2)ccc1Cl	24.7 µM	15.9 µM	–	–	13 µM	–
Fc1cc(-c2cc3c(N4CC5CCC(C4)N5)ncnc3s2)cc(C(F)(F)F)c1	12.9 µM	7.2 µM	–	–	14.7 µM	–
COc1ccc(Cl)c(-c2cc3c(N4CC5CCC(C4)N5)ncnc3s2)c1	6.7 µM	8 µM	–	–	8.4 µM	–
COc1cc(Cl)ccc1-c1cc2c(N3CC4CCC(C3)N4)ncnc2s1	6.8 µM	9.2 µM	4.9 µM	7.7 µM	7.2 µM	9.4 µM
C=CC(=O)N1CCN(c2ncnc3c(F)c(-c4c(O)cccc4F)c(Cl)cc23)CC1	> 20 µM	> 20 µM	> 20 µM	> 20 µM	> 20 µM	0.2 µM
COc1ccc(-c2cc3c(N4CC5CCC(C4)N5)ncnc3s2)cc1F	10.2 µM	13.3 µM	–	–	14.1 µM	–
COc1ccc(Cl)cc1-c1cc2c(N3CC4CCC(C3)N4)ncnc2s1	4 µM	4.9 µM	9.7 µM	8.5 µM	5.7 µM	9.4 µM
Cc1ccc(-c2cc3c(N4CC5CCC(C4)N5)ncnc3s2)c(Cl)c1	11.4 µM	15.8 µM	–	–	13.8 µM	–
